Four substances from patent publication US9943607B2, “Beta-glucan compounds, compositions, and methods” (Biothera, Inc., priority 2011, dated 2018) can be followed below.

Test [1] deals with human B cells in whole blood. Description: β-glucan binding to B cells in whole blood (BfD IV staining, flow cytometry). As to the method: Blood was collected from a healthy donor with 10 Units/mL Heparin. 100 μL of blood was mixed with IMPRIME PGG concentrations and incubated at 37° C. for 60 minutes. Cells were washed with 2 mL of PBS and supernatant removed by aspiration. Cells were then stained with 20 μL of BfD IV (U.S. Pat. No. 6,294,321) for 30 minutes before washing again with PBS. 10 μL of goat anti-mouse IgM FITC added to stain for BfD IV positive cells, while 10 μL of anti-CD19 APC was added to stain the B cell population for FACS analysis. Cells were incubated for 30 minutes at room temperature before washing with PBS. The red cells in the blood were lysed by the addition of 2 mL of BD Lyse and fixed with 2% paraformadehyde before analysis on an LSR II flow cytometer. Analysis was performed using FlowJo software.

The subject of test [2] is human B cells in enriched PBMC. Description: β-glucan binding to B cells in enriched PBMC (BfD IV staining, flow cytometry). To be noted: various hexose concentrations, 37° C., two hours. Here is the method: Enriched PBMC were resuspended at 1×10^6 cells/mL in RPMI 1640 supplemented with 10% serum. The β-glucans (IMPRIME PGG (B) and laminarin (C)) at various hexose concentration were added to the cells and incubated in a 37° C., 5% C02 humidified incubator for two hours. After incubation, cells were washed twice with FACS buffer (HBSS supplemented with 1% FBS and 0.1% sodium azide) to remove any unbound β-glucan, and subsequently treated with Fc block. After the Fc block step, cells were stained with the monoclonal antibody BfD IV (U.S. Pat. No. 6,294,321) for 30 minutes at 4° C. and washed twice with cold FACS buffer. Cells were then incubated with FITC-conjugated F(ab′)2 goat anti-mouse IgM for 30 minutes at 4° C. and washed once with cold FACS buffer before fixing with 1% paraformaldehyde. Events were collected on a LSRII flow cytometer and analysis was performed using FlowJo software. Results are shown in FIG. 2B (IMPRIME PGG) and FIG. 2C (laminarin).
Background: Flow cytometry measures light scatter and fluorescence of single cells or particles in a stream.

Test [3] concerns the target T1, complement receptor 2, (CR2; aka CD21) on B cells (Homo sapiens, UniProt P20023).
T1 construct: endogenous in cells; host or cells: B cells in whole blood or PBMC
T1 sequence (P20023 21-1033): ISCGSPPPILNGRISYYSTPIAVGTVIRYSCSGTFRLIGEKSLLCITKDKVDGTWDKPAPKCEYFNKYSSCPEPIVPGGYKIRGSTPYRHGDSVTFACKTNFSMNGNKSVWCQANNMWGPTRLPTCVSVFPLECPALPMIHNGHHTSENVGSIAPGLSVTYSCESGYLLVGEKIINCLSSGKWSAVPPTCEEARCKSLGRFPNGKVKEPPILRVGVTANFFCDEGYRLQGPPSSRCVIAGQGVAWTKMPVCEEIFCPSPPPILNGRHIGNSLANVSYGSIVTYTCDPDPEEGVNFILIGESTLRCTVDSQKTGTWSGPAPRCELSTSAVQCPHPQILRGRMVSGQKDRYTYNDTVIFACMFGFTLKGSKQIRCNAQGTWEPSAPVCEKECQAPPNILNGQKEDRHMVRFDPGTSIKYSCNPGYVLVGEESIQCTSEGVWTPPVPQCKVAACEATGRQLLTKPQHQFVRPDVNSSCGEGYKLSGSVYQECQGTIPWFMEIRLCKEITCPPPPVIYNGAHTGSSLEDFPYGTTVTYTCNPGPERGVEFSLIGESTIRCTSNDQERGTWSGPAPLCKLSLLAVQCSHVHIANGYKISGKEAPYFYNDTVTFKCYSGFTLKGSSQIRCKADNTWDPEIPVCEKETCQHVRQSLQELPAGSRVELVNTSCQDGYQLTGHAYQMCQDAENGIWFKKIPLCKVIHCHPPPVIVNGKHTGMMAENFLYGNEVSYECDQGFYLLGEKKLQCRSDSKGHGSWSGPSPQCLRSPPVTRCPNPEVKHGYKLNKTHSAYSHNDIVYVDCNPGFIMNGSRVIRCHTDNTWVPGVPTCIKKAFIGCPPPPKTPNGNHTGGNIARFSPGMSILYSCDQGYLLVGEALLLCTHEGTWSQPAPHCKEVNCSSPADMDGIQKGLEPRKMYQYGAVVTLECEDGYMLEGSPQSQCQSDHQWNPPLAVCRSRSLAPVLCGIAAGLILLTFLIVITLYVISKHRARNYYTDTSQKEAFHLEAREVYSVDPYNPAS
Kind of test: β-glucan binding and CR2 blocking with anti-CR2 antibody. To be noted: IMPRIME PGG at 100 μg/mL; whole blood or PBMC; anti-CR2 clone 1048 at 10 μg/mL. As to the method:
Whole blood or PBMC were pre-incubated with specific receptor blocking antibodies or the relevant isotype controls at 4° C. for 30-45 minutes before addition of IMPRIME PGG at 100 μg/mL. Binding to B cells was performed as described in Example 1. Clone 1048, the mouse mAb against CR2, and mouse IgG1 isotype control was used at 10 μg/mL/1×10^6 cells. Results are shown in FIG. 3B (Whole Blood) and FIG. 3C (PBMC).

In test [4] the test system is Daudi cells. Description: Binding of IMPRIME PGG to B cell tumor line Daudi. More on the design: species or system human. To be noted: 50 mcg/mL and 200 mcg/mL.
For test [5], the system named is Raji cells. Kind of test: Binding of IMPRIME PGG to B cell tumor line Raji. Also noted: species or system human. To be noted: 50 mcg/mL and 200 mcg/mL.
The subject of test [6] is CD19+ B cells. Kind of test: Targeted binding of β-glucan and β-glucan-ERBITUX conjugate to CD19+ B cells in whole blood. Also noted: species or system human. To be noted: 10 μg/mL, 30 minutes at 37° C. Here is the method: Cells were washed twice with PBS before staining with the β-glucan specific antibody BfD IV (U.S. Pat. No. 6,294,321). Cells were washed again and stained with an antibodies specific for human IgG to detect ERBITUX and CD19 to label B cells. Cells were analyzed on and LSRII flow cytometer and the groups were compared by gating on CD19^+ B cells.

The test system of test [7] is B cells. Description: Calcium flux in PBMC B cells treated in vitro with soluble β-glucan, then stimulated with anti-IgM. To be noted: 100 μg/mL, 37° C., one hour; anti-IgM 2.6 μg/mL. It counts as cell-based, human. Here is the method:
FURA RED and FLUO-4 (each from Invitrogen, Life Technologies Corp., Carlsbad, Calif.) calcium stain was added to serum free RPMI medium to a final concentration of 3 μM for each dye, then incubated at 37° C. for 30 minutes. PBMCs mixed 1:1 with media containing 10% FCS and incubated an additional 10 minutes. The cells were washed 2× with media containing 10% FCS. Cells were resuspended in RPMI with 10% human serum.
The resuspended cells were incubated with or without the addition of 100 μg/mL IMPRIME PGG at 37° C. for one hour. The monoclonal antibody CD20 APC (BioLegend, Inc., San Diego, Calif.) was added to each tube for 10 minute incubation before washing 2× with RPMI containing 10% FCS. Cells were resuspended in RPMI with 10% FCS for FACS analysis. Calcium flux was induced by stimulating the B cells with goat anti-human IgM at 2.6 μg/mL.
On the technique in general: Calcium assays in cells follow changes in intracellular calcium, usually with a dye or a luminescent sensor.

Test [8] relates to B cells. Kind of test: Calcium flux in B cells of subjects treated in vivo with particulate oral β-glucan, then stimulated with anti-IgM. Also noted: species or system human. To be noted: 100 mg/day to 1000 mg/day, anti-IgM 10, 2 or 0.4 μg/mL. As to the method:
Blood was drawn from untreated donors (n=15) or donors (n=12) treated with particulate oral β-glucan (U.S. Pat. No. 7,981,447) at dosages ranging from 100 mg/day to 1000 mg/day. PBMCs were isolated from blood using a ficoll gradient.
The isolated PBMCs were treated with 6 μM FURA RED and 3 μM FLUO-4 (each from Invitrogen, Life Technologies Corp., Carlsbad, Calif.) in PBS for 45 minutes at 37° C. The cells were washed 2× with PBS and stained with anti-CD20 APC (BioLegend, Inc., San Diego, Calif.) for 20 minutes at room temperature. Cells were washed 2× and resuspended in RPMI containing 2.5% FCS for FACS analysis. Calcium flux was induced by stimulating the B cells with goat anti-human IgM at 10 μg/mL, 2 μg/mL, or 0.4 μg/mL.

“BT-1110: bovine serum albumin (BSA) conjugated to IMPRIME PGG”: in test [1] (50 μg/mL, whole blood), the “MFI of BfD IV staining on B cells compared to unconjugated IMPRIME PGG” value is recorded as “higher”.

For the substance Laminarin [reference compound], the “binding to B cells in enriched PBMC (MFI of BfD IV staining)” value in test [2] is on record as “bind directly to human B cells”.

As for “β(1,6)-[poly-1,3)-D-glucopyranosyl]-poly-b(1,3)-D-glucopyranose [IMPRIME PGG]”, in test [1] (various concentrations, 37° C., 60 minutes), the “binding to B cells in whole blood (MFI of BfD IV staining)” value was “bind directly to human B cells”. In addition, the “binding to B cells in enriched PBMC (MFI of BfD IV staining)” value in test [2] was “bind directly to human B cells”. In test [3], the “binding to CR2 on B cells (blocking by anti-CR2 antibody)” value is reported as “binds to complement receptor 2”. Also, the “binding to Daudi B cell tumor line” value in test [4] was “bound to these tumor lines in a concentration-dependent manner”. In addition, the “binding to Raji B cell tumor line” value in test [5] is given as “bound to these tumor lines in a concentration-dependent manner”. Besides, in test [6], the “β-glucan detected on CD19+ B cells with anti-β-glucan antibody BfD IV” value is given as “positive for β-glucan”. In addition, the “calcium flux of B cells after goat anti-human IgM stimulation” value in test [7] was “larger and more sustained calcium flux”.

Regarding “β(1,6)-[poly-1,3)-D-glucopyranosyl]-poly-b(1,3)-D-glucopyranose [particulate form of β-glucan]”, the “calcium flux of B cells after goat anti-human IgM stimulation, treated vs untreated subjects” value in test [8] is “decrease calcium flux”.
